Source: US20190256930A1, “BIOMARKERS FOR DETERMINING RESPONSIVENESS TO LSD1 INHIBITORS” (ORYZON GENOMICS, S.A., priority 2016, published 2019)
“And” between values parts separate entries of the source, which are not always exact repeats. Identical values can stand only once.

Columns and labels:
Format in all cases: in vivo, human
GPR65 [1] = assay: Gene expression by qRT-PCR in peripheral blood of acute leukemia patients; conditions: individual patients
S100A12 and VCAN = S100A12 and VCAN gene expression in patients developing a differentiation syndrome; conditions: patients developing a differentiation syndrome (Patients 01 and 09); within 98 and 168 h after the first dose
Procedure: (§1) An amount of 0.5 micrograms of the 1st strand product was used to perform qRT-PCR reactions in triplicate (Taqman® gene expression assay, Life technologies, see Table 3) in a Roche LightCycler®480. In order to analyze the changes in the expression levels of ANXA2, CAMSAP2, CD86, CRISP9, CTSG, GPR65, ITGAM, LY96, LYZ, S100A12, VCAN, and VIM, ΔΔCp values for a given patient and time point were calculated as described above, relative to the endogenous reference gene HPRT1 and to a control sample obtained from the same patient at pre-dose (i.e. prior to administration of the first dose of ORY-1001 to said patient).
For the analysis of the gene expression data, the time point (or time interval) showing the maximum response is typically selected. This time point/interval may change depending on the specific dose, administration scheme, etc. In the present study, all the gene expression and correlation analysis was performed by using the data obtained after administration of day 5, i.e. within the time interval between 98 and 168 h after the first dose. The maximum response observed within this time interval is referred to in the tables herein as “Maximum response (ΔΔCp) on day 5”. […]

[2] = test system: S100A12, VCAN, ITGAM, LY96, ANXA2, CD86, GPR65, CRISP9, LYZ, and VIM; assay: Correlation of marker gene expression (qRT-PCR, peripheral blood) with response to ORY-1001; conditions: day 5
Procedure: as §1
(§2) For the analysis of the gene expression data, the time point (or time interval) showing the maximum response is typically selected. This time point/interval may change depending on the specific dose, administration scheme, etc. In the present study, all the gene expression and correlation analysis was performed by using the data obtained after administration of day 5, i.e. within the time interval between 98 and 168 h after the first dose. The maximum response observed within this time interval is referred to in the tables herein as “Maximum response (ΔΔCp) on day 5”.
Possible correlations between expression changes in marker genes described in table 5 and response to ORY-1001 treatment (see Table 2) were investigated.
The expression levels of Ly96 and ITGAM did additionally correlate with the variation of blast cells in bone marrow (see FIGS. 1A and 1B), particularly in M4/M5 subtypes, further supporting the utility of these marker genes in monitoring response to ORY-1001 treatment in easily accessible samples such as peripheral blood.

S100A12 [3] = assay: Gene expression by qRT-PCR in peripheral blood of acute leukemia patients; conditions: individual patients
VIM = assay: as above; conditions: individual patients, within 98 and 168 h after first dose, relative to HPRT1 and pre-dose, negative = up-regulation
Procedure: (§3) Plasma for pharmacokinetic determinations was separated by centrifugation. The remaining cell volume was resuspended in 2 mL PBS and an aliquot of […] was stabilized in a PAXgene® Blood RNA tube as described by the vendor and kept frozen for subsequent RNA extraction and qRT-PCR.
(§4) RNA extraction was performed using PAXgene® Blood RNA Kit (PreAnalytix) as described by the vendor. RNA quality was assessed using an Agilent 2100 Bioanalyzer™ and quantity was measured using a NanoDrop™ spectrophotometer.
(§5) An amount of 0.5 micrograms of total RNA was reverse transcribed to obtain 1st strand cDNA (iScript® Reverse Transcription Supermix for RTqPCR; Bio-Rad).
(§6) Gene expression was analyzed by qRT-PCR, a variant of the PCR (Polymerase Chain Reaction) method that permits the simultaneous exponential amplification and detection of specific cDNA fragments. Taqman gene expression assays were used, which employ the principle of doubly labeled hydrolysis probes marked with a fluorescent moiety at their 5′ end and with a quencher moiety at the 3′ end, which prevents the generation of fluorescence according to the Förster energy transfer principle.
(§7) In the exponential phase of the amplification reaction, the intensity of the fluorescence is directly proportional to the quantity of PCR product formed. The LightCycler® 480 Software determines the “crossing point” (Cp), i.e. the point where the reaction's fluorescence reaches the maximum of the second derivative of the amplification curve, which corresponds to the point where the acceleration of the fluorescence signal is at its maximum. The Cp values reflect the target mRNA concentration in the original RNA sample. Differences in Cp values (ΔCp) for a gene X of interest in a given sample relative to a control sample reflect changes in mRNA concentration of the gene X in a given amount of total RNA in the respective sample, and are calculated as:
(§8) ΔΔCp, gene X=[Cp(sample, gene X)−Cp(sample, reference gene)]−[Cp(control, gene X)−Cp(control, reference gene)]
(§9) The fold change in mRNA concentration is calculated as 2^−ΔΔCp, a negative ΔΔCp representing an increase in the expression level, and vice versa.
as §1, §2

CD86 = assay: as above; conditions: individual patients, within 98 and 168 h after first dose, relative to HPRT1 and pre-dose, negative = up-regulation
Procedure: as §3, §4, §5, §6, §7, §8, §9, §1, §2

LYZ = assay: as above; conditions: individual patients, within 98 and 168 h after first dose, relative to HPRT1 and pre-dose, negative = up-regulation
Procedure: as §3, §4, §5, §6, §7, §8, §9, §1, §2

GPR65 [4] = assay: as above; conditions: individual patients, within 98 and 168 h after first dose, relative to HPRT1 and pre-dose, negative = up-regulation
Procedure: as §3, §4, §5, §6, §7, §8, §9, §1, §2

ITGAM = assay: as above; conditions: individual patients, within 98 and 168 h after first dose, relative to HPRT1 and pre-dose, negative = up-regulation
Procedure: as §3, §4, §5, §6, §7, §8, §9, §1, §2

VCAN = assay: as above; conditions: individual patients, within 98 and 168 h after first dose, relative to HPRT1 and pre-dose, negative = up-regulation
Procedure: as §3, §4, §5, §6, §7, §8, §9, §1, §2

CAMSAP2 = assay: as above; conditions: individual patients, within 98 and 168 h after first dose, relative to HPRT1 and pre-dose, negative = up-regulation
Procedure: as §3, §4, §5, §6, §7, §8, §9, §1, §2

ANXA2 = assay: as above; conditions: individual patients, within 98 and 168 h after first dose, relative to HPRT1 and pre-dose, negative = up-regulation
Procedure: as §3, §4, §5, §6, §7, §8, §9, §1, §2

CTSG = assay: as above; conditions: individual patients, within 98 and 168 h after first dose, relative to HPRT1 and pre-dose, negative = up-regulation
Procedure: as §3, §4, §5, §6, §7, §8, §9, §1, §2

S100A12 [5] = assay: as above; conditions: individual patients, within 98 and 168 h after first dose, relative to HPRT1 and pre-dose, negative = up-regulation
Procedure: as §3, §4, §5, §6, §7, §8, §9, §1, §2

Ly96 = assay: as above; conditions: individual patients, within 98 and 168 h after first dose, relative to HPRT1 and pre-dose, negative = up-regulation
Procedure: as §3, §4, §5, §6, §7, §8, §9, §1, §2

blast cells = assay: Clinical response: morphological blast differentiation and blast counts in smears of bone marrow aspirate and/or peripheral blood, Phase I extension cohort
From the text: As part of a Phase I clinical study assessing the human pharmacokinetics and safety of ORY-1001 in acute leukemia patients, an extension cohort of 14 patients (mean age 57; range 30-78, gender 8M/6F) was opened in order to provide a preliminary assessment of efficacy. A summary of the patients recruited in this extension cohort can be found in Table 1.
Preliminary clinical efficacy endpoints included (a) morphological blast differentiation and (b) decrease in blast %. In addition, gene expression determinations of selected markers were performed.
Each patient received ORY-1001 for oral intake as a solution at a dose of 140 microgram/m2/day (as free base) q.d., during 5 consecutive days with 2 days of rest, for 4 cycles (total of 28 days), or until disease progression or unacceptable toxicity was observed.
For the evaluation of the morphological blast differentiation and blast counts, smears of bone marrow aspirate and/or peripheral blood were prepared, stained by the May-Grünwald-Giemsa method, and microscopically examined in accordance with ICSH guidelines (ICSH guidelines for the standardization of bone marrow specimens and reports, Lee S H, Erber W N, Porwit A, Tomonaga M, Peterson L C; International Council for Standardization In Hematology, International journal of laboratory hematology 2008 October; 30(5):349-64).

[6] = within 602 and 768 h after the first administration
[7] = within first 24 h after the first administration
[8] = patients showing both blast morphological differentiation and a decrease in blast cells, particularly M4/M5
[9] = patients showing no morphological differentiation and/or no effect or increase in blast cells
[10] = peripheral blood and/or bone marrow, extension cohort of 14 patients, all four FAB subtypes

## N[C@H]1CC[C@H](N[C@@H]2C[C@H]2c2ccccc2)CC1 [ORY-1001, (trans)-N1-((1R,2S)-2-phenylcyclopropyl)cyclohexane-1,4-diamine]
GPR65 [1]; [6]
  GPR65 Day 26 maximum response: −3.2 ΔΔCp and −4.8 ΔΔCp
GPR65 [1]; [7]
  GPR65 Day 1 maximum response: 2.2 ΔΔCp and −1.1 ΔΔCp
S100A12 and VCAN
  S100A12 and VCAN exacerbated up-regulation (fold): 18 to 550 fold
  S100A12 and VCAN exacerbated up-regulation (ΔΔCp): −4.2 to −9.1 ΔΔCp
[2]; [8]
  up-regulation of the gene markers (fold): 1.3 to 550 fold
  up-regulation of the gene markers (ΔΔCp): −0.4 to −9.1 ΔΔCp
[2]; [9]
  down-regulation of some of the genes (fold change): 0.6 to 0.05 fold
  down-regulation of some of the genes (ΔΔCp): 0.8 to 4.4 ΔΔCp
S100A12 [3]; [6]
  S100A12 Day 26 maximum response: −7.1 ΔΔCp and −2.8 ΔΔCp
S100A12 [3]; [7]
  S100A12 Day 1 maximum response: −2.1 ΔΔCp and −0.4 ΔΔCp
VIM
  Maximum response (ΔΔCp) on day 5, VIM: −1.2 ΔΔCp and −1.3 ΔΔCp and −0.5 ΔΔCp and 2.2 ΔΔCp and 1.7 ΔΔCp and −2.4 ΔΔCp and −3.4 ΔΔCp and −2.2 ΔΔCp and −0.4 ΔΔCp and 1.3 ΔΔCp and −0.6 ΔΔCp
CD86
  Maximum response (ΔΔCp) on day 5, CD86: −1.8 ΔΔCp and 2.2 ΔΔCp and 2.5 ΔΔCp and −2.9 ΔΔCp and −3.0 ΔΔCp and −2.0 ΔΔCp and −3.3 ΔΔCp and 0.8 ΔΔCp and −4.4 ΔΔCp and −2.5 ΔΔCp and −2.8 ΔΔCp and 1.3 ΔΔCp
LYZ
  Maximum response (ΔΔCp) on day 5, LYZ: 2.9 ΔΔCp and 3.2 ΔΔCp and −1.2 ΔΔCp and 1.7 ΔΔCp and −2.3 ΔΔCp and 2.5 ΔΔCp and −2.2 ΔΔCp and −3.9 ΔΔCp and −0.6 ΔΔCp and 2.4 ΔΔCp and 1.2 ΔΔCp
GPR65 [4]
  Maximum response (ΔΔCp) on day 5, GPR65: −1.8 ΔΔCp and −1.4 ΔΔCp and −1.3 ΔΔCp and −3.8 ΔΔCp and 3.1 ΔΔCp and −0.9 ΔΔCp and 2.3 ΔΔCp and −4.8 ΔΔCp and −3.0 ΔΔCp and −2.3 ΔΔCp and 4.4 ΔΔCp and −1.5 ΔΔCp
ITGAM
  Maximum response (ΔΔCp) on day 5, ITGAM: 1.7 ΔΔCp and 1.6 ΔΔCp and 2.1 ΔΔCp and −2.3 ΔΔCp and 3.0 ΔΔCp and 3.1 ΔΔCp and −1.3 ΔΔCp and 3.2 ΔΔCp and −3.0 ΔΔCp and −3.7 ΔΔCp and −2.8 ΔΔCp and 1.8 ΔΔCp
VCAN
  Maximum response (ΔΔCp) on day 5, VCAN: 2.2 ΔΔCp and 2.0 ΔΔCp and −0.8 ΔΔCp and −9.1 ΔΔCp and 1.8 ΔΔCp and 3.4 ΔΔCp and −2.2 ΔΔCp and −2.1 ΔΔCp and −4.2 ΔΔCp and −1.2 ΔΔCp and 1.6 ΔΔCp and 1.2 ΔΔCp
CAMSAP2
  Maximum response (ΔΔCp) on day 5, CAMSAP2: −2.8 ΔΔCp and −1.9 ΔΔCp and 1.2 ΔΔCp and 3.1 ΔΔCp and 1.6 ΔΔCp and −3.7 ΔΔCp and −4.3 ΔΔCp and −2.5 ΔΔCp and −2.3 ΔΔCp and −3.0 ΔΔCp and −2.9 ΔΔCp and −1.4 ΔΔCp
ANXA2
  Maximum response (ΔΔCp) on day 5, ANXA2: 2.0 ΔΔCp and −1.1 ΔΔCp and −2.6 ΔΔCp and 1.9 ΔΔCp and −1.9 ΔΔCp and −2.0 ΔΔCp and −3.8 ΔΔCp and −1.6 ΔΔCp and −1.4 ΔΔCp and 3.2 ΔΔCp
CTSG
  Maximum response (ΔΔCp) on day 5, CTSG: 2.3 ΔΔCp and 3.9 ΔΔCp and 3.3 ΔΔCp and 1.8 ΔΔCp and 2.2 ΔΔCp and −1.8 ΔΔCp and 7.6 ΔΔCp and −3.6 ΔΔCp and −1.7 ΔΔCp and −2.5 ΔΔCp and −0.7 ΔΔCp
S100A12 [5]
  Maximum response (ΔΔCp) on day 5, S100A12: −4.5 ΔΔCp and −1.7 ΔΔCp and 1.7 ΔΔCp and 1.3 ΔΔCp and 2.7 ΔΔCp and −5.0 ΔΔCp and 3.0 ΔΔCp and 0.8 ΔΔCp and 2.4 ΔΔCp and 2.0 ΔΔCp and 2.1 ΔΔCp and 3.9 ΔΔCp and −2.1 ΔΔCp
Ly96
  Maximum response (ΔΔCp) on day 5, Ly96: −1.6 ΔΔCp and −2.9 ΔΔCp and 2.3 ΔΔCp and −3.3 ΔΔCp and 3.0 ΔΔCp and −4.3 ΔΔCp and −3.1 ΔΔCp and −4.8 ΔΔCp and 2.4 ΔΔCp and −3.2 ΔΔCp and −5.1 ΔΔCp and −4.1 ΔΔCp and −1.5 ΔΔCp
Blast cells; individual patients, peripheral blood, variation of blast % between pre- and post-treatment (day 7 to 29), 140 microgram/m2/day oral
  % Blast variation (peripheral blood): ↓ −32% (peripheral blood) and ↓ −55% (peripheral blood) ^e and =(peripheral blood) and ↓ −55% and =
Blast cells; [10]
  patients with decrease in blast cells: 6/14
  patients with morphologic blast differentiation: 5/14
